Results: patent publication US8697867B2, “Cross-linked cyclic amine compounds and agents for pest control” (Nippon Soda Co., Ltd., priority 2005, dated 2014)

Tests used:
Tetranychus urticae = experiment: Effectiveness against Tetranychus urticae (adulticidal rate on common bean leaf); type: in vivo; conditions: 125 ppm wettable powder dilution; adult females resistant to organophosphorus pesticides; 3 days after application; 25° C., 65% humidity
Panonychus citri = experiment: Effectiveness against Panonychus citri (mandarin orange leaf in petri dish); type: in vivo; conditions: 125 ppm emulsion dilution; adults removed 3 days after application; examined on the 11th day; 25° C., 65% humidity
Experimental: 10 adult female Panonychus citri were inoculated on the leaf of a mandarin orange, which was placed in a petri dish. After the inoculation, the drug solution, which was prepared by following the method of the emulsion shown in Example 2 of the drugs and by diluting with water to achieve the compound concentration of 125 ppm, was applied using a rotary spreading tower. The dish was placed in a temperature-controlled room where the temperature and humidity were set to 25° C. and 65% respectively, adults were removed 3 days after the application, and whether eggs laid during these 3 days could grow to become adults was examined on the 11th day.

Structure (SMILES)	insecticidal rate (adulticidal rate) (Tetranychus urticae) [%]	insecticidal rate (whether eggs laid during 3 days could grow to adults) (Panonychus citri) [%]
CCCOc1cc(C(F)(F)F)ccc1OC1CC2CCC(C1)N2c1ccc(C(F)(F)F)c(F)c1 (stereo not drawn) [Compound 4-70, 3α-[2-n-propoxy-4-(trifluoromethyl)phenoxy]-8-[3-fluoro-4-(trifluoromethyl)phenyl]-8-azabicyclo[3.2.1]octane]	100	100
FC(F)(F)c1ccc(OC2CC3CCC(C2)N3c2ccc(C(F)(F)F)cn2)nc1 (stereo not drawn) [Compound 2-3, 3α-(5-trifluoromethyl-2-pyridyloxy)-8-(5-trifluoromethyl-pyridin-2-yl)-8-azabicyclo[3.2.1]octane]	100	–
